Laboratory results published in patent US9408395B2, “Process for potentiating the production of Lingzhi mushroom (Ganoderma lucidum) substances and antifungal activity thereof” (UNIVERSIDAD DE ANTIOQUIA (UDEA), priority 2013, dated 2016).

How the values were obtained:
Mycosphaerella fijiensis [1] = assay: Mycelium growth inhibition in microplate format, protein extracts; format: cell-based; conditions: 0.3 ppm
Procedure: In order to obtain protein extracts, the optimized protein extraction protocol was followed (Item 4.1.2). Later, the protein pellet was re-suspended in 1 ml PBS pH 7.4 buffer, 200 μL DMSO and 200 μL glycerol. The protein extracts of each LED were quantified by the Bradford method (Bio-Rad Protein Assay®) (61). […] The extracts were diluted in pH 7.4 PBS phosphate buffer.
The Mycosphaerella fijiensis-inoculated microplates and also treated with the different extracts were incubated. Readings were performed according to the Standard Norm. Each concentration was assayed in three repetitions, including three experiment replicas (63, 64). Thereafter, the determination of the growth inhibition percentage for each concentration of each protein extract used was performed (65-67).
Through the use of logic models (non linear regressions) the relationship between the concentration logarithm of each antifungal (x axis) versus inhibition percentage (y axis) was established thus obtaining the respective equations, for EC50 analysis for each treatment at 5 concentrations, in order to determine the necessary concentration of each extract to reduce the population growth by 50% at an in vitro level.
In order to determine which the best protein extract for Mycosphaerella fijiensis mycelium growth inhibition was, a statistical analysis using a category factorial design was performed. […]

Mycosphaerella fijiensis [2] = assay: Agar diffusion assay (plate diffusion method); format: cell-based; conditions: compared to other treatments and growth control
Procedure: In order to corroborate antifungal activity of each extract, said activity was assayed in Petri dishes using the plate diffusion method; for said purpose, 20 ml of PDA medium were dispensed for a final thickness of 4 mm. After homogenizing inocula, deep plating was performed wherein each plate was inoculated using 2×10^4 Mycosphaerella fijiensis mycelium fragments. Afterwards, using a 0.5 mm internal diameter punch, wells were made wherein 10 or 20 μL of each extract were deposited, in addition to the inhibition positive control using Mancozeb and a negative control using a 1:1 ethanol:DMSO mix. The plates were incubated in darkness conditions, 25±1° C. for seven days.

Which results are given for Mancozeb?
Inhibition of Mycosphaerella fijiensis growth (Mycosphaerella fijiensis [1]): 72%; Mycelium growth inhibition (in words) (Mycosphaerella fijiensis [2]): entirely inhibited
